The values that follow come from patent publication US6555523B1, “Use of cirsiliol and derivatives to treat infections” (priority 1999, dated 2003).

Data set [1] in a line: Drug cytotoxicity, Protocol A2 (microscopic). Conditions: human, Hep2 cell monolayers.
For data set [2], the system named is parainfluenza HA-1. Nature of the data set: CPE-inhibition (microscopic) assay, Protocol A2. The class given is cell-based, parainfluenza virus. As to conditions: HEp-2, cell Hep2 (cell blank for 3-(4′-bromophenyl) coumarin).
Data set [3] has as its system HIV ROJO. In words: Anti-HIV assay in fresh human PBL (RT activity), Protocol D1. Conditions: Human immunodeficiency virus 1, PBMC.
Data set [4] is described as follows: in vitro. As to conditions: human, TC50.
Data set [5] relates to rhinovirus 14. Nature of the data set: Anti-picornaviral virus yield assay, Protocol B. Format: cell-based, Rhinovirus type 14. As to conditions: Enterovirus.
The subject of data set [6] is T, gondii RH. Nature of the data set: In-vitro anti Toxoplasma gondii activity in HFF, Protocol C. The class given is cell-based. The method, then:
Protocol C—In-vitro testing of anti Toxoplasma gondii activity of Cirsiliol and Naringin. The compounds were tested in an in vitro cell culture assay utilizing human fibroblasts (HFF line) as the host cell. RH strain Toxoplasma gondii that has been transfected with β-galactosidase as a marker for quantitative detection of parasite number (RH Bgal), was used as the challenge organism. The compounds ere dissolved, and then diluted in cell culture medium at least 100 fold for the assays. Controls containing the maximum concentration of solvent used in the assay were run with each test. The active drugs were added and the monolayers were infected immediately at the beginning of each test. Extracellular T. gondii were removed by rinsing the monolayer, and infected host cells remained in contact with the cells for the entire test period. Each test was terminated when at least four parasite doublings could be visually identified in the control monolayers, and parasite numbers were quantitated by standard colorimetric assay for bet galactosidase activity with optical density at 550 nm as the readout. The optical density in this assay has a direct and linear correlation with parasite numbers over a 5-log parasite concentration. Toxicity in the host cells was determined by inspection for cytopathic effects and visual evaluation of cell growth.

For data set [7], the system named is toxoplasma. In words: Inhibition of parasite levels in vivo, mice infected with 20 toxoplasma cysts. On the set-up: species or system Mice (C57BL/6). The text has this: Inhibition of parasite levels in vivo. Mice (C57BL/6) were infected with 20 toxoplasma cysts and then treated with cirsiliol or control vehicle (0.1% DMSO). After the treatment, the level of toxoplasma cysts in the brain was reduced (about 1.5-2 fold) by the cirsiliol treatment compared to the control.

Data set [8] can be described thus: in vitro. Conditions: dog.
Data set [9] deals with Influenza A. Nature of the data set: CPE-inhibition (microscopic) assay, Protocol A2. As to conditions: Influenza A virus, MDCK. The class given is cell-based.
A short description of data set [10]: Drug cytotoxicity by XTT in PBL, Protocol D1. As to conditions: human, TC50, PBMC, printed on each HIV isolate line.
Data set [11] is described as follows: Drug solubility observed in the BVDV test. Conditions: BVDV test in MDBK cultures; naringin solvent EtOH.
For data set [12], the system named is MDBK cells. In words: Cytotoxicity in MDBK cultures (BVDV test). As to conditions: at 10.000 μg/mL, no toxicity at lower concentrations.
Protocol: As a comparison, similar tests were conducted using ribavirin.
The subject of data set [13] is Bovine Viral Diarrhea Virus. Nature of the data set: Plaque formation by Bovine Viral Diarrhea Virus in MDBK cultures. Format: cell-based, bovine viral diarrhea virus (BVDV). Conditions: for % Reduction: plaques; for Number of plaques: Tests 1-3, control 68. As to the method:
HCV in vitro assays. No well-accepted model exists for HCV and new compounds for use in the treatment of HCV are frequently tested for activity against bovine viral diarrhea virus (BVDV), a virus which is related to HCV.
A representative compound according to the present invention, naringin (i.e., 7-neohesperidoside, 5, 4′ dihydroxyflavanone) was tested for anti-BVDV activity in MDBK cells.

In data set [14] the test system is HIV clade E THA/93/073. In words: Anti-HIV assay in fresh human PBL (RT activity), Protocol D1. Conditions: Human immunodeficiency virus 1, PBMC.
In data set [15] the test system is HIV Merck 1002-60. The data set is described as above. As to conditions: Human immunodeficiency virus 1, PBMC.
Data set [16] has as its system HIV Ba-L. Nature of the data set: Anti-HIV assay in fresh human monocyte-macrophages (p24 ELISA), Protocol D2. Format: cell-based. Conditions: Human immunodeficiency virus 1, BAL, Macrophage, Protocol D2.
Protocol: Protocol D2—Assay in fresh human monocyte-macrophages. […] The cells are placed in a 96-well microtiter plate at 37° C. for 2 hours. Non-adherent cells are removed by vigorously washing six times. […] The cultures are carefully monitored for confluency during this incubation period. Infection of the cells is performed with monocytotropic HIV-1 isolates. High titer pools of each of these viruses are harvested from infected cultures of peripheral blood adherent cells and frozen in 1.0 ml aliquots at −80° C. Monocytemacrophage monolayers are infected at a multiplicity of infection (“MOI”) of 0.1.
(§1) At 2 days post-infection, the medium is decanted and the cultures washed twice with complete medium in order to remove excess virus. Fresh medium alone or medium containing the appropriate concentration of drug is added and incubation continued for an additional five days. XTT staining for cytotoxicity and HIV p24 ELISA assays for production of p24 core antigen are performed on Day 7 post infection. This is performed according the ELISA kit assay manufacturers recommendations. Control curves are generated in each assay to accurately quantitate the amount of capsid protein in each sample. Data is obtained by spectrophotometric analysis at 450 nm using a Molecular Devices Vmax plate reader. P24 concentrations are calculated form the optical density values by use of the Molecular Device software package Soft Max.
Most of the values were based on average values that were obtained from duplicate or triplicate assay wells.
Data set [17] concerns HIV Merck 1022-48. Nature of the data set: Anti-HIV assay in fresh human PBL (RT activity), Protocol D1. As to conditions: Human immunodeficiency virus 1, PBMC. Format: cell-based.
In data set [18] the test system is HIV Merck 144-44. The description is as above. Conditions: Human immunodeficiency virus 1, PBMC.
Data set [19] deals with HIV clade F BR/92/021. The data set is described as above. As to conditions: Human immunodeficiency virus 1, PBMC.
In data set [20] the test system is HIV clade A UG/93/037. Described as above. As to conditions: Human immunodeficiency virus 1, PBMC.
The test system of data set [21] is HIV Merck 52-52. The data set is described as above. As to conditions: Human immunodeficiency virus 1, PBMC.
Data set [22] relates to HIV clade B BR/92/014. The data set is described as above. As to conditions: Human immunodeficiency virus 1, PBMC.
Data set [23] has as its system HIV Merck 1026-60. The description is as above. As to conditions: Human immunodeficiency virus 1, PBMC.
The nature of data set [24]: Drug cytotoxicity by XTT in monocyte-macrophages, Protocol D2. The class given is cell-based. Conditions: human; macrophage; Protocol D2; read-out: TC50.
Protocol: Protocol D2—Assay in fresh human monocyte-macrophages. […] The cells are placed in a 96-well microtiter plate at 37° C. for 2 hours. Non-adherent cells are removed by vigorously washing six times. […] The cultures are carefully monitored for confluency during this incubation period. Infection of the cells is performed with monocytotropic HIV-1 isolates. […] Monocytemacrophage monolayers are infected at a multiplicity of infection (“MOI”) of 0.1.
as §1
The test system of data set [25] is HIV Merck 1064-52. In words: Anti-HIV assay in fresh human PBL (RT activity), Protocol D1. As to conditions: Human immunodeficiency virus 1, PBMC.

Converted amounts (≈) assume the structure as drawn. “And” between values parts separate entries of the source, which are not always exact repeats. Equal values may be shown once. Marks after values point to notes of the source that are not given here.

`O=c1oc2ccccc2cc1-c1ccc(Br)cc1` [3-(4′-Bromophenyl) coumarin, 3-(4′-bromophenyl) coumarin] had a CC50 in data set [1] of 100 µM. Also, the IC50 – broadly, the concentration that gives 50% inhibition – in data set [2] is 6.3 µM.
Consider `O=c1cc(-c2ccccc2)oc2ccc(O)cc12` [6-Hydroxyflavone, 6-hydroxyflavone], for which the IC50 in data set [3] amounted to 41.8 µM. For the same molecule, the CC50 in data set [4] stood at 53.9 µM.
On to `COc1cc2oc(-c3ccc(O)c(O)c3)cc(=O)c2c(O)c1OC` [Cirsiliol, 6,7′-dimethoxy-5,3′,4′-trihydroxyflavone], for which the CC50 in [1] is 12.5 µM; in [8], less than 6.3 µM. The IC50 is roughly 3000 nM in data set [5], roughly 2000 nM in [6], greater than 200 µM in data set [9] and 7.8 µM in [2]. The “survival of toxoplasmosis infection” value in data set [7] (8 mice, 21-day post infection follow up, 4 of 8 vehicle control mice died by 15 days) was “all 8 cirsiliol treated mice survived”. Also, the “level of toxoplasma cysts in the brain reduced compared to the control” value in [7] (C57BL/6 mice, 20 toxoplasma cysts, control vehicle 0.1% DMSO) was 1.5-2 fold.
In the case of `O=c1cc(-c2ccccc2)oc2ccccc12` [Flavone, flavone], the half-maximal inhibitory concentration (IC50) in [3] stood at 86.6 µM. In data set [4], this molecule yielded a CC50 of 173 µM.
In data set [3], `COc1ccc([C@@H]2CC(=O)c3c(O)cc(O)cc3O2)cc1O` [Hesperetin, hesperetin] gave a half-maximal inhibitory concentration (IC50) of 134 µM. For the same molecule, the CC50 in data set [10] turned out to be 190 µM.
Consider `NC(=O)c1ncn([C@@H]2O[C@H](CO)[C@@H](O)[C@H]2O)n1` [Ribavirin, ribavirin, reference compound], for which the drug solubility observation entry in [11] is given as “Comment: Positive control drug. Drug was soluble in medium”. Further, the “toxicity to the cells” value in [12] is “*Partial toxicity to the cells was observed with no toxicity at lower concentrations”. Also, the ID50 in [13] (BVDV plaque formation in MDBK, table footnote, unit from the table's concentration head) turned out to be 1.24 µg/mL (≈ 5.08 µM). Further, the “% Reduction” value was 14.10% in data set [13] (ribavirin 0.320 μg/mL); 38.99% in data set [13] (ribavirin 1.000 μg/mL); 93.65% in data set [13] (ribavirin 3.200 μg/mL); 100.00* % in [13] (ribavirin 10.000 μg/mL, partial toxicity to the cells). Also, the “Number of plaques” value is 55 and 62 and 59 in data set [13] (ribavirin 0.320 μg/mL); 36 and 42 and 47 in data set [13] (ribavirin 1.000 μg/mL); 4 and 5 in data set [13] (ribavirin 3.200 μg/mL); 0 in data set [13] (ribavirin 10.000 μg/mL).
Take `COc1ccc(-c2cc(=O)c3c(OC)c(OC)c(OC)c(OC)c3o2)cc1` [Tangeretin, tangeretin]: the 50% inhibitory concentration (IC50) in data set [14] was 15.3 µM; in data set [15], 9.7 µM; in [16] it was greater than 100 µM; in data set [17] it was 20.8 µM; in data set [18], 14.7 µM; in data set [19], 15.7 µM. Besides, the IC50 in data set [20] amounted to 19.4 µM; in data set [21] it was 18.2 µM; in [22] it was 12.3 µM; in [23], 19.8 µM; in data set [25] it was 15 µM. Besides, the CC50 at 7 days in data set [24] was greater than 100 µM.
